From US20250195522A1, “TRANSDERMAL DOSAGE FORM, FOR PROMOTING LOCAL BLOOD FLOW, OF DUAL-ACTING PDE5 INHIBITOR/ORGANIC NITRATE ESTER” (UIF (University Industry Foundation), Yonsei University, priority 2022, published 2025) come the findings set out here.

Entries after “also recorded” stand apart in the source; their conditions may differ.

Assay [1] relates to C57BL/6 mice with hair follicles in the telogen phase. The experiment in a line: Hair growth in hair-removed C57BL/6 mice, evaluated on Day 21 (visual/Image J, H&E). The format is in vivo. The note with it: for skin area converted to black (anagen phase) with respect to the total hair-removed skin area / skin area with actual hair growth as a percentage of the total hair removal skin area: 50 μL.
Method: 7-week-old C57BL/6 mice (Orient Bio, Korea) with hair follicles in the telogen phase were purchased and the experiment was performed. The experiment was conducted using 4 mice each for 6 experimental groups of a vehicle-applied control group (topical control), a Minoxidil-applied positive control group (topical Minoxidil), an Cp 1-applied group (topical Cp 1), a candlelit-shaped microneedle control group (CMN control), an Cp 1 microneedle administration group (Cp 1 conv-DMN) and an Cp 1 candlelit-shaped microneedle administration group (Cp 1 CMN).
In the topical formulation, polyethylene glycol 400 (PEG 400; Sigma-Aldrich, St. Louis, MO, USA) and ethanol (99.5°; Sigma-Aldrich) were mixed in 50 μL solution with a ratio of 7:3 (v/v) containing 2% (w/v) of minoxidil (Sigma-Aldrich) and 0.002% (w/v) of Cp-1 (2 μg per day). The topical formulation groups' 50 μL solutions were administered twice a day.
The experiment was started in a pink skin condition by removing the hair on the back of the mice, and the drug application was carried out twice a day for 21 days, and when injected using a microneedle, it was injected once every 2 days and was not injected on last Day 21.
On Day 21 of the administration, the area in which the color of the back of the mice was changed to black, that is, the area converted to the anagen phase among the shaved areas was analyzed with the naked eye and the Image J software (National Institutes of Health, Bethesda, MD, USA), which is an image analysis program.
On Day 21 of the administration, the ratio of actual hair growth on the back of the mice was analyzed with the naked eye and the Image J software (National Institutes of Health, Bethesda, MD, USA), which is an image analysis program.
On Day 21 of the administration, the distribution rate by hair growth cycle in mice was compared.

A further assay relates to MECA 32. As to the kind of experiment: Immunohistochemical staining of mouse back skin, vascular endothelial cell marker MECA 32. The format is in vivo, mice. The settings on record: Day 21. An excerpt: (§1) The development of skin tissue, which becomes the surrounding support for hair growth, plays an important role in hair growth. As such, in order to compare the degree of the development of skin tissue in 6 experimental groups of the vehicle-applied control group (topical control), the Minoxidil-applied positive control group (topical minoxidil), the Cp 1 application group (topical Cp 1), the candlelit-shaped microneedle control group (CMN control), the Cp 1 microneedle administration group (Cp 1 conv-DMN) and the Cp 1 candlelit-shaped microneedle administration group (Cp 1 CMN), β-catenin and PCNA, which are biomarkers indicating skin tissue proliferation, the vascular endothelial cell marker MECA 32 showing the development of the vascular network around the mouse hair follicle, and the dermal papilla cell (DP) marker Versican (VCAN), which is generated in the hair follicle anagen phase showing the hair follicle anagen phase inducing effect, were observed by immunohistochemical staining. To this end, as in Example 1-2, the back tissue of the mice was collected on Day 21, then the frozen tissue was sectioned, and the fluorescent material-conjugated antibody was treated on the tissue, and then the fluorescence images were analyzed. The antibodies used were β-catenin (BD Biosciences, San Jose, CA, USA), PCNA (LSBIO, Seattle, WA, USA), VCAN (LSBIO, Seattle, WA, USA) and MECA-32 (Novus Biologicals, CA, USA), respectively.

The next assay deals with Versican (VCAN). As to the kind of experiment: Immunohistochemical staining of mouse back skin, dermal papilla cell marker Versican (VCAN). The note with it: Day 21. The format is in vivo, mice.
From the text: as §1

Another assay concerns β-catenin. As to the kind of experiment: Immunohistochemical staining of mouse back skin, β-catenin. The format is in vivo, mice. The note with it: Day 21.
From the text: as §1

The mark [2] stands for this setting: topical application twice a day.
[3] abbreviates: topical application twice a day, 2% (w/v) minoxidil or 0.002% (w/v) Cp 1.
Setting [4] is: general microneedle or candlelit-shaped microneedle.

In the case of `Nc1cc(N2CCCCC2)nc(N)[n+]1[O-]` [Minoxidil, 2,4-diamino-6-piperidinopyrimidine-3-oxide, reference compound], the “hair growth effect and skin tissue development (visual observation, H&E)” value in assay [1] (setting [2]) is reported as “increased skin thicknesses along with the hair growth effect”. Besides, in assay [1] (setting [3]), the “hair follicles converted to the anagen phase (distribution rate by hair growth cycle, H&E)” value is reported as 52.5±1.3%; the “skin area converted to black (anagen phase) with respect to the total hair-removed skin area” value stood at 65.3±22.3%; the “skin area with actual hair growth as a percentage of the total hair removal skin area” value is given as 38.4±17.1%. In addition, in the assay on MECA 32 (topical application), the “expression level of MECA 32 (rank order of groups)” value is “increased in the order of Minoxidil application. Cp 1 application, Cp 1 administration using a general microneedle and M-19 administration using a candlelit-shaped microneedle”. Moreover, in the assay on Versican (VCAN) (topical application), the “expression level of VCAN (rank order of groups)” value is “increased in the order of Minoxidil application, Cp 1 application, Cp 1 administration using a general microneedle and M-19 administration using a candlelit-shaped microneedle”.
With `CCCOc1ccc(S(=O)(=O)N2CCC(CCO[N+](=O)[O-])(CCO[N+](=O)[O-])CC2)cc1-c1nc2c(CCC)cn(CC)c2c(=O)[nH]1` [Cp 1, (1-((3-(5-ethyl-4-oxo-7-propyl-4,5-dihydro-3H-pyrrolo[3,2-d]pyrimidin-2-yl)-4-propoxyphenyl)sulfonyl)piperidine-4,4-diyl)bis(ethane-2,1-diyl) dinitrate], the “skin thickness and hair thickness” value was “more significantly improved skin thickening effect and hair thickness improvement effect” in assay [1] (administered using microneedles, especially candlelit-shaped microneedles); “more improved skin thickening effect and hair thickness improvement effect” in assay [1] (topical application, compared to topical Minoxidil). For the same molecule, the “hair growth effect and skin tissue development (visual observation, H&E)” value in assay [1] (setting [2]) was “increased skin thicknesses along with the hair growth effect; also recorded: more effective than Minoxidil treatment”. Also, the “skin area converted to black (anagen phase) with respect to the total hair-removed skin area” value in assay [1] (setting [3]) was 92.1±3.0%. In addition, the “skin area with actual hair growth as a percentage of the total hair removal skin area” value in assay [1] (setting [3]) was 61.0±14.0%. The β-catenin expression result in the assay on β-catenin (Cp 1 applied, compared with Minoxidil applied) was “higher”; in the assay with β-catenin (administered using a candlelit-shaped microneedle), “highest β-catenin expression effect”; in the assay with β-catenin (administered with a microneedle, compared with Minoxidil applied), “higher”. Moreover, the “expression level of MECA 32 (rank order of groups)” value with MECA 32 (setting [4]) is “increased in the order of Minoxidil application. Cp 1 application, Cp 1 administration using a general microneedle and M-19 administration using a candlelit-shaped microneedle”; with MECA 32 (topical application), “increased in the order of Minoxidil application. Cp 1 application, Cp 1 administration using a general microneedle and M-19 administration using a candlelit-shaped microneedle”. The “expression level of VCAN (rank order of groups)” value in the assay with Versican (VCAN) (setting [4]) is “increased in the order of Minoxidil application, Cp 1 application, Cp 1 administration using a general microneedle and M-19 administration using a candlelit-shaped microneedle”; in the assay with Versican (VCAN) (topical application), “increased in the order of Minoxidil application, Cp 1 application, Cp 1 administration using a general microneedle and M-19 administration using a candlelit-shaped microneedle”.
